# In ChEMBL document CHEMBL3813632, “Thiazolo[3,2-a]benzimidazol-3(2H)-one derivatives: Structure-activity relationships of selective nucleotide pyrophosphatase/phosphodiesterase1 (NPP1) inhibitors” (Bioorg Med Chem, 2016):
# What was measured:
# [1] = target: T1, Ectonucleotide pyrophosphatase/phosphodiesterase family member 1 (Homo sapiens, UniProt P22413); test: Inhibition of human recombinant NPP1 expressed in insect SF9 cells using ATP as substrate preincubated with substrate followed by protein addition and subsequent incubation for 30 mins by capillary electrophoresis
# T1 sequence (P22413 whole entry): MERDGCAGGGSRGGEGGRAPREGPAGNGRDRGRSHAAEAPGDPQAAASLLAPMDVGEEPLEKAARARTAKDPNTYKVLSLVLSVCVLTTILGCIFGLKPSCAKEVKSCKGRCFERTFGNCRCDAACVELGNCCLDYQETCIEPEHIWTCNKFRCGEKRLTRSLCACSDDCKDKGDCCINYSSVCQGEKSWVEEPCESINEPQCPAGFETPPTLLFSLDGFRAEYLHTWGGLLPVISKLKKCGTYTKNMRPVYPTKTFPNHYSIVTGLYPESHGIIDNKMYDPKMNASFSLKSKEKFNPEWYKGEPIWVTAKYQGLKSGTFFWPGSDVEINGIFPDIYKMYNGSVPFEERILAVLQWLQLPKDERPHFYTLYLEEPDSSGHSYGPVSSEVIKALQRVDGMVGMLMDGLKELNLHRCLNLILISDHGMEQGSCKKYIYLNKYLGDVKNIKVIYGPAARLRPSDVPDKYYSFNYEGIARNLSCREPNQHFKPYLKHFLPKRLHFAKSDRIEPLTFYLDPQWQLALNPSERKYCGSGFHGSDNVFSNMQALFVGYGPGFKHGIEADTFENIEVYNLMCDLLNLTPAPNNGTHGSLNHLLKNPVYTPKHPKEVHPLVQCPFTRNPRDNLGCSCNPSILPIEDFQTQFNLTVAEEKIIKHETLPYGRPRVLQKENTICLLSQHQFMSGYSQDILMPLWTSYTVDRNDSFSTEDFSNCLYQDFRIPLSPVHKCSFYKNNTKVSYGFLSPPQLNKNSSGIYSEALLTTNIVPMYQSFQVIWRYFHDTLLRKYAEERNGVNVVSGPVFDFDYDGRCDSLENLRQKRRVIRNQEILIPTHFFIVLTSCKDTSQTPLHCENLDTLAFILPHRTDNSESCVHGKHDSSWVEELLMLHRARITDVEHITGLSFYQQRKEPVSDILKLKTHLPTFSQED
# [2] = target: T2, Ectonucleotide pyrophosphatase/phosphodiesterase family member 1 (Homo sapiens) (UniProt P22413); test: Inhibition of human recombinant NPP1 expressed in insect SF9 cells using ATP as substrate at 10 uM preincubated with substrate followed by protein addition and subsequent incubation for 30 mins by capillary electrophoresis
# T2 sequence (whole entry): T1 sequence (P22413 whole entry)
# [3] = Retention time of the compound in MgCl2/CaCl2/CHES buffer at pH 9 by LC-MS analysis; format: physicochemical
# [4] = Drug level in MgCl2/CaCl2/CHES buffer treated with (Z)-2-((5-iodofuran-2-yl)methylene)benzo[d]thiazolo[3,2-a]imidazol-3(2H)-one at pH 9 after 24 hrs by LC-MS analysis; format: physicochemical; conditions: pH 9, 24 h
# [5] = target: T1, Ectonucleotide pyrophosphatase/phosphodiesterase family member 1; test: Competitive inhibition of human NPP1 expressed in African green monkey COS7 cells using ATP as substrate after 20 mins by Michaelis-Menten plot analysis; format: cell-based, COS-7
# [6] = target: T1, Ectonucleotide pyrophosphatase/phosphodiesterase family member 1; test: Competitive inhibition of human NPP1 transfected in HEK293 cells using p-Nph-5'-TMP as substrate preincubated for 3 mins followed by substrate addition measured after 15 mins by Cornish-Bowden plot analysis
Compound,Ki [1],inhibition [2],also measured
O=c1/c(=C/c2ccco2)sc2nc3ccccc3n12,0.981 µM,,
O=c1/c(=C/c2cccs2)sc2nc3ccccc3n12,≥ 10 µM,43%,
O=C(/C(O)=C\c1ccc(I)o1)n1c(=S)[nH]c2ccccc21,,,Retention_time [3]: 3.8 min; Drug metabolism [4]: metabolite_detected
O=c1/c(=C/c2ccccc2)sc2nc3ccccc3n12,> 10 µM,31%,
O=c1/c(=C/c2cccc(OCc3ccccc3)c2)sc2nc3ccccc3n12,> 10 µM,10%,
O=c1/c(=C/C=C/c2ccccc2)sc2nc3ccccc3n12,> 10 µM,24%,
O=c1/c(=C/c2cccc(Oc3ccccc3)c2)sc2nc3ccccc3n12,> 10 µM,13%,
CN(C)c1ccc(/C=c2\sc3nc4ccccc4n3c2=O)o1,4.21 µM,,
O=c1/c(=C/c2ccc(Br)o2)sc2nc3ccccc3n12,0.61 µM,,
O=c1[nH]c2ccccc2cc1/C=c1/sc2nc3ccccc3n2c1=O,> 10 µM,30%,
O=c1/c(=C/c2ccc(N3CCOCC3)cc2)sc2nc3ccccc3n12,8.91 µM,,
O=c1/c(=C/c2ccc(-c3ccccc3)o2)sc2nc3ccccc3n12,≥ 10 µM,48%,
Nc1c(S(=O)(=O)O)cc(Nc2ccc(Nc3nc(Cl)nc(Nc4cccc(S(=O)(=O)O)c4)n3)c(S(=O)(=O)O)c2)c2c1C(=O)c1ccccc1C2=O [REACTIVE BLUE 2],,,Ki [5]: 0.52 µM
O=c1/c(=C/c2cccc(Cc3ccccc3)c2)sc2nc3ccccc3n12,> 10 µM,11%,
Cc1ccc(/C=c2\sc3nc4ccccc4n3c2=O)cc1,> 10 µM,28%,
COc1cc(/C=c2/sc3nc4ccccc4n3c2=O)ccc1OCc1nnn[nH]1,> 10 µM,21%,
CC1CCN(c2cc(N3CCC(C)CC3)c([N+](=O)[O-])cc2/C=c2/sc3nc4ccccc4n3c2=O)CC1,8.56 µM,,
CCN(CC)c1ncnc2c1ncn2[C@@H]1O[C@H](COP(=O)(O)OP(=O)(O)C(Br)(Br)P(=O)(O)O)[C@@H](O)[C@H]1O,,,Ki [6]: 12 µM
Cc1ccc(/C=c2\sc3nc4ccccc4n3c2=O)o1,2.11 µM,,
O=c1/c(=C/c2ccc(Cl)cc2)sc2nc3ccccc3n12,> 10 µM,32%,
O=c1/c(=C/c2ccc(Sc3ccccc3)o2)sc2nc3ccccc3n12,≥ 10 µM,40%,
O=c1/c(=C/c2ccc([N+](=O)[O-])o2)sc2nc3ccccc3n12,1.07 µM,,
O=c1/c(=C\c2ccccc2)sc2nc3ccccc3n12,> 10 µM,10%,
C/C=c1\sc2nc3ccccc3n2c1=O,> 10 µM,0%,
O=c1/c(=C\c2ccc3ccccc3c2)sc2nc3ccccc3n12,> 10 µM,24%,
O=c1/c(=C/c2ccc(I)cc2)sc2nc3ccccc3n12,> 10 µM,31%,
O=c1/c(=C/c2ccccn2)sc2nc3ccccc3n12,> 10 µM,39%,
